Columns and labels:
Stromelysin-1 = Stromelysin-1 (Homo sapiens, UniProt P08254); experiment: Inhibitory constant against matrix metalloprotease-3
Interstitial collagenase = molecular target: T1, Interstitial collagenase (Homo sapiens, UniProt P03956); experiment: Inhibitory constant against matrix metalloprotease-1
T1 sequence (P03956 whole entry): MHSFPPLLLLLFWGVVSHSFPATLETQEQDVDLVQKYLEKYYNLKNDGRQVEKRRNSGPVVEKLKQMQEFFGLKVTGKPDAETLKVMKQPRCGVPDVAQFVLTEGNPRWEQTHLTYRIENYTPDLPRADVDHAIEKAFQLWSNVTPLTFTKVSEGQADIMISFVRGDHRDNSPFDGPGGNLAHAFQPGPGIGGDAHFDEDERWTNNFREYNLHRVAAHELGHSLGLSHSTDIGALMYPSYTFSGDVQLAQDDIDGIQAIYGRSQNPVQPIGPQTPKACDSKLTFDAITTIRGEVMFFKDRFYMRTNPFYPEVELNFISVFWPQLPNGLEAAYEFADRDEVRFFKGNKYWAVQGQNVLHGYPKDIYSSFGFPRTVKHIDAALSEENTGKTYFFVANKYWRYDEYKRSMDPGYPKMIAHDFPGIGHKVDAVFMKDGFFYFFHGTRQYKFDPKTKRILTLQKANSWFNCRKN

[1] = molecular target: 72 kDa type IV collagenase (Homo sapiens, UniProt P08253); experiment: Inhibitory constant against matrix metalloprotease-2
72 kDa type IV collagenase, sequence (P08253 whole entry): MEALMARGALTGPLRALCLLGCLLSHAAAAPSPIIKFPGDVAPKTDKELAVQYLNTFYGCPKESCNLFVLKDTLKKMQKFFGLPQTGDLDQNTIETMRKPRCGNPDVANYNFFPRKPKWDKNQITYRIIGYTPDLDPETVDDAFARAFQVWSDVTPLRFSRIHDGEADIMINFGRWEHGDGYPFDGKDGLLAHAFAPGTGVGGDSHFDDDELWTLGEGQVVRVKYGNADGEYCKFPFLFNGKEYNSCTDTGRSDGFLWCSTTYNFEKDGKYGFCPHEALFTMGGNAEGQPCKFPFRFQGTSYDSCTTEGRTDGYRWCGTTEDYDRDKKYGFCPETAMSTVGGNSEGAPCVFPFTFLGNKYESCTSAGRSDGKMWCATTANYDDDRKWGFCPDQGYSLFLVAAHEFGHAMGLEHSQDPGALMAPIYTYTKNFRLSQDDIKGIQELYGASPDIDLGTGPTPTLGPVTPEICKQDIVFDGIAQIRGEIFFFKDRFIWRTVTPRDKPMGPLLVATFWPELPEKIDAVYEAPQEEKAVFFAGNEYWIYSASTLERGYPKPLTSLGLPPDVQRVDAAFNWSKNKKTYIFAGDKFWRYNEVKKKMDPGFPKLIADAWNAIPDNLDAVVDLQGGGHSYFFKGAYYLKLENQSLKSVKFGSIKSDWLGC

Stromelysin-1, sequence (P08254 whole entry): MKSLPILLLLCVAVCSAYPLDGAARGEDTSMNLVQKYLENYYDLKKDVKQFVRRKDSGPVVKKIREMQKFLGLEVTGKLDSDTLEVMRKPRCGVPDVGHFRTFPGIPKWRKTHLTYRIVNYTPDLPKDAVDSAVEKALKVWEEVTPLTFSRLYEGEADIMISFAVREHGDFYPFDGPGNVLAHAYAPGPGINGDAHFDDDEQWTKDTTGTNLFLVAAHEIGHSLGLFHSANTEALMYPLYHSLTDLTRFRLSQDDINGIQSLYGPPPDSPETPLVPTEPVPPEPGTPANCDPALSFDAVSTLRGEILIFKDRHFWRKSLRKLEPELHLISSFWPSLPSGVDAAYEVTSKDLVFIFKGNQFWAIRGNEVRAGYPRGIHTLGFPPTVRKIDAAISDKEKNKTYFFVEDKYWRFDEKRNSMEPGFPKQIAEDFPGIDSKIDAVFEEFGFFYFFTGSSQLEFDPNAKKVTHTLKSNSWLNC

Row | Compound | Ki (Stromelysin-1) [nM] | Ki (Interstitial collagenase) [nM] | Ki [1] [nM]
1 | Cc1ccc(CCC[C@H](CC(=O)NO)C(=O)N[C@@H](CC2CCCCC2)C(=O)NCCC(=O)NCCN2CCOCC2)cc1 | 6.26 | 455 | 0.01
2 | O=C(C[C@@H](CCCc1ccccc1)C(=O)N[C@@H](CC1CCCCC1)C(=O)NCCC(=O)NCCc1ccc(S(=O)(=O)O)cc1)NO | 81.5 | 942 | 0.59
3 | Cc1ccc(CCC[C@H](CC(=O)O)C(=O)N[C@@H](CC2CCCCC2)C(=O)NCCCCN2CCOCC2)cc1 | 1600 | 100000 | 
4 | COc1ccc(CCC[C@H](CC(=O)O)C(=O)N[C@@H](CC2CCCCC2)C(=O)NCCc2ccc(S(N)(=O)=O)cc2)cc1 |  | 100000 | 
5 | NS(=O)(=O)c1ccc(CCNC(=O)CCNC(=O)[C@H](CC2CCCCC2)NC(=O)[C@H](CCCc2ccc(Cl)cc2)CC(=O)NO)cc1 | 6.35 | 382 | 0.01
6 | Cc1ccc(CCC[C@H](CC(=O)NO)C(=O)N[C@@H](CC2CCCCC2)C(=O)NCCC(=O)NCCc2ccc(S(N)(=O)=O)cc2)cc1 | 2.98 | 329 | 0.02
7 | Cc1ccc(CCC[C@H](CP(=O)(O)O)C(=O)N[C@@H](CC2CCCCC2)C(=O)NCCc2ccccc2)cc1 |  | 17000 | 
8 | Cc1ccc(CCC[C@H](CC(=O)NO)C(=O)N[C@@H](CC2CCCCC2)C(=O)NCCC(=O)NCCCCN(C)C)cc1 | 5.87 | 313 | 0.03
9 | CN(C)CCCCNC(=O)CCNC(=O)[C@H](CC1CCCCC1)NC(=O)[C@H](CCCc1ccc(Cl)cc1)CC(=O)NO | 22.2 | 1050 | 0.05
10 | NC(=O)CCCNC(=O)[C@H](CC1CCCCC1)NC(=O)[C@H](CCCc1ccccc1)CC(=O)O | 1090 |  | 

Further compounds by falling Ki (Stromelysin-1), results first:

Row | Ki (Stromelysin-1) [nM] | Ki (Interstitial collagenase) [nM] | Ki [1] [nM] | Compound
11 | 2.75 | 385 | 0.03 | Cc1ccc(CCC[C@H](CC(=O)NO)C(=O)N[C@@H](CC2CCCCC2)C(=O)NCCC(=O)NCCNS(=O)(=O)N2CCOCC2)cc1
12 | 2.61 | 642 | 0.02 | Cc1ccc(CCC[C@H](CC(=O)NO)C(=O)N[C@@H](CC2CCCCC2)C(=O)NCCC(=O)NCCCCN2CCOCC2)cc1
13 | 2.39 | 313 | 0.03 | O=C(C[C@@H](CCCc1ccc(Cl)cc1)C(=O)N[C@@H](CC1CCCCC1)C(=O)NCCC(=O)NCCCCN1CCOCC1)NO
14 | 1.73 | 302 | 0.01 | O=C(C[C@@H](CCCc1ccc(Cl)cc1)C(=O)N[C@@H](CC1CCCCC1)C(=O)NCCC(=O)NCCNS(=O)(=O)N1CCOCC1)NO
15 | 1.38 | 319 | 0.02 | O=C(C[C@@H](CCCc1ccc(Cl)cc1)C(=O)N[C@@H](CC1CCCCC1)C(=O)NCCC(=O)NCCC(=O)N1CCOCC1)NO
16 | 0.96 | 135 | 0.01 | COC(=O)CCNC(=O)CCNC(=O)[C@H](CC1CCCCC1)NC(=O)[C@H](CCCc1ccc(Cl)cc1)CC(=O)NO
17 | 0.8 | 193 | 0.01 | O=C(O)CCNC(=O)CCNC(=O)[C@H](CC1CCCCC1)NC(=O)[C@H](CCCc1ccc(Cl)cc1)CC(=O)NO

— ChEMBL document CHEMBL1134761, “A new concept for multidimensional selection of ligand conformations (MultiSelect) and multidimensional scoring (MultiScore) of protein-ligand binding affinities” (J Med Chem, 2001)
